{
  "source": "patent US20100331927A1",
  "about": "“FEEDBACK-CONTROLLED METHOD FOR DELIVERING PHOTODYNAMIC THERAPY AND RELATED INSTRUMENTATION” (priority 2007, published 2010)",
  "origin": "cited, not measured here",
  "test_system": "rat bladder tumor model",
  "settings": "60s/60s light interval/dark interval",
  "data": [
    {"smiles": "C=Cc1c(C)c2cc3nc(cc4[nH]c(cc5nc(cc1[nH]2)C(C)=C5CCC(=O)O)c(CCC(=O)OC)c4C)C1(C)C3=CC=C(C(=O)OC)C1C(=O)OC", "note": "(stereo not shown) [BPD-MA]", "values": [
      {"measurement": "improvement of phototoxicity by light fractionation", "result": 1000, "unit": "fold"}
    ]}
  ]
}
